# Results from patent US10434079B2, “Compositions and methods for the treatment of fatty acid metabolism disorders” (The Children's Hospital of Philadelphia, priority 2013, dated 2019).
# What was measured:
# [1] = molecular target: T1, VLCAD (Mus musculus, UniProt P50544); assay: VLCAD activity assay (ferricenium) in liver homogenates from injected ob/ob mice
# T1 sequence (P50544 42-656): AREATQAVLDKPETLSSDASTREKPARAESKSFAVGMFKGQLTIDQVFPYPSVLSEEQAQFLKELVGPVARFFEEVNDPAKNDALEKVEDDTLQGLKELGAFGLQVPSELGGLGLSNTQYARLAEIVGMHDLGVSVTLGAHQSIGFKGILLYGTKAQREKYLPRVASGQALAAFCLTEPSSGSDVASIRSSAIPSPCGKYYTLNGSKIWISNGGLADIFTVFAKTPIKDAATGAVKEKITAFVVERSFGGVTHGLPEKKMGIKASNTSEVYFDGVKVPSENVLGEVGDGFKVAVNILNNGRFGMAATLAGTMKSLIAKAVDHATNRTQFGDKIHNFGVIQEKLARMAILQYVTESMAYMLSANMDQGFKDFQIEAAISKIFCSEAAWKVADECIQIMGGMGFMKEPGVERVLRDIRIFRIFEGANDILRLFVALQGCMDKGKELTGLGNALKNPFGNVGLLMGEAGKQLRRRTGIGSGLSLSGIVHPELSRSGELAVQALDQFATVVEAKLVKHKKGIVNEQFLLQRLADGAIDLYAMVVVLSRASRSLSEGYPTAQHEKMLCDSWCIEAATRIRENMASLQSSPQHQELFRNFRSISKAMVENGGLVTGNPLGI
# [2] = molecular target: T1, VLCAD; assay: Quantification of S-nitrosylated VLCAD by organomercury capture in liver of treated mice; assay type: in vivo; set-up: Liver homogenate (final concentration of 0.03 μg/μl) or cell lysate; from tissue; host or cells: mouse liver (C57BL/6J wild-type, ob/ob, eNOS-/-); conditions: ob/ob mouse liver, from 25% S-nitrosylated VLCAD
# Protocol: A detailed experimental procedure for the preparation and activation of columns, homogenate preparation for reaction with organic mercury resin, has been described (Doulias et al. (2010) Proc. Natl. Acad. Sci., 107:16958-16963). Three biological replicates from each organ were analyzed. […] The false identification rate was <6% for brain and <3% for all other organs. For washes, stringent conditions were selected due to the differences in lipid content among the six organs. Columns were initially washed with 50 bed volumes of 50 mM tris-HCl (pH 7.4) containing 300 mM NaCl and 0.5% SDS, followed by 50 bed volumes of the same buffer containing 0.05% SDS. Columns were washed with 50 bed volumes of 50 mM tris-HCl containing 300 mM NaCl (pH 7.4), 1% Triton X-100, and 1 M urea, followed by 50 bed volumes of the same buffer containing 0.1% Triton X-100 and 0.1 M urea. Finally, columns were washed with 200 bed volumes of water before proteins were eluted with 10 ml of 50 mM β-mercaptoethanol in water. Samples were concentrated and analyzed by gel-LC (liquid chromatography)-MS/MS analysis. For on-column digestion after the final wash with water, the columns were washed with 10 bed volumes of 0.1 M ammonium bicarbonate. Bound proteins were subjected to digestion by the addition of Trypsin Gold (1 μg/ml) (Promega) in one bed volume of 0.1 M […] in the dark for 16 hours at room temperature. […]
smiles,measurement,setting,value
"N[C@@H](CCC(=O)N[C@@H](CSN=O)C(=O)NCC(=O)O)C(=O)O [GSNO, S-nitrosoglutathione]",acyl dehydrogenase-mediated oxidation of palmitoyl-CoA,[1]; GSNO-treated ob/ob mouse liver,increase
same,apparent KM in PBS-injected ob/ob homogenates relative to wild-type and GSNO-injected ob/ob mice,[1]; liver homogenates,more than fivefold higher
same,increase of catalytic efficiency (kcat/KM) of S-nitrosylated VLCAD vs unmodified protein,[2],29 fold
